In ChEMBL document CHEMBL6109139, “Rational Design of the First Dual Agonist at Trace Amine-Associated Receptor 1 and 5-HT2C Receptors Based on Binding Pocket Similarity for the Treatment of Schizophrenia and Alzheimer's Disease-Related Psychosis” (J Med Chem, 2025):
Active and inactive are the calls of the source. The calls are words filed in the database; no cut-off is given here.

Experiments:
[1] = Toxicity in female Sprague-Dawley rat assessed as minimal corneal neovascularization at 7.5 mg/kg, po administered once daily for 4 weeks; type: organism-based; details: in vivo, 672 h
[2] = test system: 5-hydroxytryptamine receptor 2C (Homo sapiens), P28335 [D134A]; assay: Agonist activity at 5HT2CR D134A mutant (unknown origin) expressed in HEK293 cells assessed as IP1 level by HTRF IP1 competitive binding assay; type: cell-based
5-hydroxytryptamine receptor 2C (Homo sapiens), P28335 [D134A], sequence (P28335 whole entry D134A): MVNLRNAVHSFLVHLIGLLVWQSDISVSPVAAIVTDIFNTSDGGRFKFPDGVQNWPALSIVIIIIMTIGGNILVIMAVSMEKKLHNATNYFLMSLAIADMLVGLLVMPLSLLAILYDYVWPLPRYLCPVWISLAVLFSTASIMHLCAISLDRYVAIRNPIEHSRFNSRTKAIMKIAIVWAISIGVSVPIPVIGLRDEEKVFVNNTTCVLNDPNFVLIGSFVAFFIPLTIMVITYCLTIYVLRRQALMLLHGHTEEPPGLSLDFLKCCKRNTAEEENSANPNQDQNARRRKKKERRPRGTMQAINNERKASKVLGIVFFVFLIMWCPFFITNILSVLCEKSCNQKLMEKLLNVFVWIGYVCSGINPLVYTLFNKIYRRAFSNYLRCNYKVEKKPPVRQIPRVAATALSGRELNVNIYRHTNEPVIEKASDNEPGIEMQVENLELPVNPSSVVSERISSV

[3] = Toxicity in male Sprague-Dawley rat assessed as suppression of body weight gain at 7.5 mg/kg, po administered once daily for 4 weeks and measured after 4 weeks; type: organism-based; details: in vivo, 1344 h, time 8 weeks
[4] = Toxicity in Sprague-Dawley rat assessed as good general health at 2.5 to 7.5 mg/kg, po administered once daily for 4 weeks; type: organism-based; details: in vivo, 672 h, dose 2.5-7.5 mg/kg
Cytochrome P450 2C8 = Cytochrome P450 2C8 (Homo sapiens, UniProt P10632); assay: Inhibition of CYP2C8 in human liver microsomes in presence of NADPH by LC-MS/MS analysis; type: ADME, Microsome
Cytochrome P450 2C8, sequence (P10632 whole entry): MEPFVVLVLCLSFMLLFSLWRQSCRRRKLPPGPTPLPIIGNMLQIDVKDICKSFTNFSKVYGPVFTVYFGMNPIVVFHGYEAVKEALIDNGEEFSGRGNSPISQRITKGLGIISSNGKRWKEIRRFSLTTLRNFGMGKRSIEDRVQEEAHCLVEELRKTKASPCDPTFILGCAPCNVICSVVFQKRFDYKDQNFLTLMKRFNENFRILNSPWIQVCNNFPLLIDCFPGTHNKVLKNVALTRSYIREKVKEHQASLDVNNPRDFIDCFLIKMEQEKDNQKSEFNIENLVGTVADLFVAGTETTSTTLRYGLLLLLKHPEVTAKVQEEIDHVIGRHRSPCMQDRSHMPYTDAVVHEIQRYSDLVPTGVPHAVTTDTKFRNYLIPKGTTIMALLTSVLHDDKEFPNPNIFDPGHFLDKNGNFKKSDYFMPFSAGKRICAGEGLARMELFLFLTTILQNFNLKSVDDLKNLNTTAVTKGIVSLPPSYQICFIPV

[5] = Toxicity in female Sprague-Dawley rat assessed as change in clinical chemistry at 2.5 to 7.5 mg/kg, po administered once daily for 4 weeks and measured after 4 weeks; type: organism-based; details: in vivo, 1344 h, dose 2.5-7.5 mg/kg, time 8 weeks
[6] = molecular target: Vasopressin V1a receptor (Homo sapiens) (UniProt P37288); assay: Binding affinity to V1a receptor (unknown origin) at 10 uM by radioligand binding assay relative to control
Vasopressin V1a receptor (Homo sapiens), sequence (P37288 whole entry, looked up): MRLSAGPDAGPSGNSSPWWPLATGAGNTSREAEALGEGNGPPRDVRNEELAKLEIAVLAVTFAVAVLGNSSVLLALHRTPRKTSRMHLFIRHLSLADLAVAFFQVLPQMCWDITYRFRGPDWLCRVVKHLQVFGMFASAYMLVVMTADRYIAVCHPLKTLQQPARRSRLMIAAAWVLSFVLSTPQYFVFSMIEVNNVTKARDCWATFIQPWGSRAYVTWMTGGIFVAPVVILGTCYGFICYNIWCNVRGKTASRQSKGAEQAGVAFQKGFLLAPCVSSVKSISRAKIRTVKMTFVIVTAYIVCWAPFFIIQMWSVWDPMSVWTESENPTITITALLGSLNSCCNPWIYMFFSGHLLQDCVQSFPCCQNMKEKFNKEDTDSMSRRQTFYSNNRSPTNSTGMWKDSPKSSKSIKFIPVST

[7] = Mutagenicity in Salmonella typhimurium TA100 by Ames test; type: toxicity; details: salmonella enterica subsp. enterica serovar typhimurium
[8] = molecular target: 5-hydroxytryptamine receptor 1A (Homo sapiens, UniProt P08908); assay: Agonist activity at human 5-HT1A expressed in CHO cells coexpressing Galpha15 by FLIPR calcium assay; type: functional, cell-based
[9] = Cardiotoxicity in conscious cynomolgus monkey assessed as waveform abnormalities in leas-II ECG at 3.125 to 12.5 mg/kg, IG measured within 24 hrs by EcgAUTO analysis; type: toxicity, organism-based, Macaca fascicularis; details: in vivo, po, dose 3.125-12.5 mg/kg
[10] = Mutagenicity in Salmonella typhimurium TA97a by Ames test; type: toxicity; details: salmonella enterica subsp. enterica serovar typhimurium
[11] = Toxicity in female Sprague-Dawley rat assessed as irritability at 7.5 mg/kg, po administered once daily for 4 weeks; type: organism-based; details: in vivo, 672 h
[12] = test system: 5-hydroxytryptamine receptor 2C (Homo sapiens), P28335 [W324A]; assay: Agonist activity at 5HT2CR W324A mutant (unknown origin) expressed in HEK293 cells assessed as IP1 level by HTRF IP1 competitive binding assay; type: cell-based
5-hydroxytryptamine receptor 2C (Homo sapiens), P28335 [W324A], sequence (P28335 whole entry W324A): as the sequence (P28335 whole entry D134A) above, with A134D, W324A counted along it

[13] = Toxicity in female Sprague-Dawley rat assessed as piloerection at 7.5 mg/kg, po administered once daily for 4 weeks; type: organism-based; details: in vivo, 672 h
[14] = Toxicity in male Sprague-Dawley rat assessed as suppression of food consumption at 7.5 mg/kg, po administered once daily for 4 weeks and measured after 4 weeks; type: organism-based; details: in vivo, 1344 h, time 8 weeks
[15] = Toxicity in male Beagle dog assessed as change in blood pressure at 0.75 to 2.5 mg/kg, IG administered once daily for 4 weeks and measured after 4 weeks; type: organism-based, Canis lupus familiaris; details: in vivo, po, 1344 h, dose 0.75-2.5 mg/kg, time 8 weeks
[16] = molecular target: 5-hydroxytryptamine receptor 2C (Mus musculus, UniProt P34968); assay: Agonist activity at mouse 5-HT2CR; type: functional
5-hydroxytryptamine receptor 2C (Mus musculus, UniProt P34968), sequence (P34968 whole entry): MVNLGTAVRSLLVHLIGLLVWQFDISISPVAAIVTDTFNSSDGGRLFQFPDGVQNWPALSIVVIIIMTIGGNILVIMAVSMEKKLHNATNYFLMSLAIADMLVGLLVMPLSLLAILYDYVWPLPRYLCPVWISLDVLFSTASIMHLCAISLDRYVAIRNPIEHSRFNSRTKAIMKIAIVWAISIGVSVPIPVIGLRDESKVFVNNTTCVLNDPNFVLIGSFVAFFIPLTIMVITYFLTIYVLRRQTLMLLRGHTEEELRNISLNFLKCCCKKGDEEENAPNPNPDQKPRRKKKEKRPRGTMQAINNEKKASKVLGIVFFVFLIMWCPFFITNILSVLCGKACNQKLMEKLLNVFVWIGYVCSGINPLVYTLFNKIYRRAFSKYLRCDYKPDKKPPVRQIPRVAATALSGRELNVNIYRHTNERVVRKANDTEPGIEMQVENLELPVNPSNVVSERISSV

[17] = Toxicity in male Beagle dog assessed as change in bone marrow smears at 0.75 to 2.5 mg/kg, IG administered once daily for 4 weeks and measured after 4 weeks; type: organism-based, Canis lupus familiaris; details: in vivo, po, 1344 h, dose 0.75-2.5 mg/kg, time 8 weeks
[18] = molecular target: Beta-2 adrenergic receptor (Homo sapiens) (UniProt P07550); assay: Binding affinity to beta 2 receptor (unknown origin) at 10 uM by radioligand binding assay relative to control
Beta-2 adrenergic receptor (Homo sapiens), sequence (P07550 whole entry, looked up): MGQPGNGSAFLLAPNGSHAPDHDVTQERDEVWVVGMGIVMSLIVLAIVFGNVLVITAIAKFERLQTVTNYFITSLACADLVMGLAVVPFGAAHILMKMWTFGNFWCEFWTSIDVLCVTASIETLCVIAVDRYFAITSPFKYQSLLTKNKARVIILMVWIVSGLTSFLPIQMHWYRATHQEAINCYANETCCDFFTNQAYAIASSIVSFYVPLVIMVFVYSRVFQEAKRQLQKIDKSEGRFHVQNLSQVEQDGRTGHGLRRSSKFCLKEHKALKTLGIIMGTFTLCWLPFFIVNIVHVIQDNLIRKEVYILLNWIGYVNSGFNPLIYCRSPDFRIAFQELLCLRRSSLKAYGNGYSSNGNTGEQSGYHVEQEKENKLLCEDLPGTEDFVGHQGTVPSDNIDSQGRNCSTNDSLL

[19] = Toxicity in male Beagle dog assessed as change in urinalysis at 0.75 to 2.5 mg/kg, IG administered once daily for 4 weeks and measured after 4 weeks; type: organism-based, Canis lupus familiaris; details: in vivo, po, 1344 h, dose 0.75-2.5 mg/kg, time 8 weeks
[20] = Metabolic stability in human liver microsomes assessed as intrinsic clearance at 1 uM incubated for 60 mins by LC-MS/MS analysis; type: ADME, Microsome; details: read-out: CLH
[21] = Toxicity in female Sprague-Dawley rat assessed as change in blood glucose level at 2.5 to 7.5 mg/kg, po administered once daily for 4 weeks and measured after 4 weeks; type: organism-based; details: in vivo, 1344 h, dose 2.5-7.5 mg/kg, time 8 weeks
[22] = Cardiotoxicity in conscious cynomolgus monkey assessed as decrease in body temperature at 3.125 to 12.5 mg/kg, IG by digital thermometer analysis; type: toxicity, organism-based, Macaca fascicularis; details: in vivo, po, dose 3.125-12.5 mg/kg
Mus musculus = assay: Antipsychotic activity against DOI-induced head-twitch response in mouse assessed as reduction in head-twitch response at 10 mg/kg, IG measured for 30 mins relative to control; type: functional; parameters: scale not given: the % may be the effect or the level left; details: 0.5 h
[23] = Cardiotoxicity in conscious cynomolgus monkey assessed as normal spontaneous movement at 3.125 to 12.5 mg/kg, IG; type: toxicity, organism-based, Macaca fascicularis; details: in vivo, po, dose 3.125-12.5 mg/kg
[24] = molecular target: Prostaglandin G/H synthase 2 (Homo sapiens) (UniProt P35354); assay: Binding affinity to COX2 (unknown origin) at 10 uM by radioligand binding assay relative to control
Prostaglandin G/H synthase 2 (Homo sapiens), sequence (P35354 whole entry): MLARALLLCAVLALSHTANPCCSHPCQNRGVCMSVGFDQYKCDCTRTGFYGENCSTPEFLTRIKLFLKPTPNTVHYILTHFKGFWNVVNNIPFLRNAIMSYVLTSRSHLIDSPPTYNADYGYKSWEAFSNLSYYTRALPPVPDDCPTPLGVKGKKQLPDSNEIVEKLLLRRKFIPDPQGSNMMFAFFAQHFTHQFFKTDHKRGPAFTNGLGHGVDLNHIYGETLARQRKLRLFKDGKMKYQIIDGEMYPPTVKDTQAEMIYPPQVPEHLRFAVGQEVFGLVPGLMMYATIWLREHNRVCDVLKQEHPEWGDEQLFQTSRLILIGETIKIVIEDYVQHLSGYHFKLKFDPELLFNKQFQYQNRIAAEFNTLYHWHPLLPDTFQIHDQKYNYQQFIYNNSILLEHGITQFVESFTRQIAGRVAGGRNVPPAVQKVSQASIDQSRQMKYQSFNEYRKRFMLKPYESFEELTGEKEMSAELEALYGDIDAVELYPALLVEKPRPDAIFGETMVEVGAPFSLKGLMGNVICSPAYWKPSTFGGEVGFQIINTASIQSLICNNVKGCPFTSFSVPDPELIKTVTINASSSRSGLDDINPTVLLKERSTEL

[25] = Toxicity in female Sprague-Dawley rat assessed as change in hematology at 2.5 to 7.5 mg/kg, po administered once daily for 4 weeks and measured after 4 weeks; type: organism-based; details: in vivo, 1344 h, dose 2.5-7.5 mg/kg, time 8 weeks
[26] = Toxicity in female Sprague-Dawley rat assessed as suppression of body weight gain at 7.5 mg/kg, po administered once daily for 4 weeks and measured weekly twice; type: organism-based; details: in vivo, 672 h
[27] = molecular target: Alpha-2A adrenergic receptor (Homo sapiens) (UniProt P08913); assay: Binding affinity to alpha 2A (unknown origin) at 10 uM by radioligand binding assay relative to control
Alpha-2A adrenergic receptor (Homo sapiens), sequence (P08913 whole entry): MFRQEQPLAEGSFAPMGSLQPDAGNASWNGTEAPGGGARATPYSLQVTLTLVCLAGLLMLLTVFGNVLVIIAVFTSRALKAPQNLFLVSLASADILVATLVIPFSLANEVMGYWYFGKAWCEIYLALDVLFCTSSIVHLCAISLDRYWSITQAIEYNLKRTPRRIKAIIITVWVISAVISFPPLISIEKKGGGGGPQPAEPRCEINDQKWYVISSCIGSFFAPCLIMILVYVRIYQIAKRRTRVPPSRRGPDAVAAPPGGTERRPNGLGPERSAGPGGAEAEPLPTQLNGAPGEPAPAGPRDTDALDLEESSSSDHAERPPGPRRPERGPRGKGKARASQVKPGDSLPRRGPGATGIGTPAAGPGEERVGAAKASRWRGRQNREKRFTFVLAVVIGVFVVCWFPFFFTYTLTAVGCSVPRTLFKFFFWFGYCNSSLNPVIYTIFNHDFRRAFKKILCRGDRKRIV

[28] = Toxicity in male Sprague-Dawley rat assessed as slow respiration at 7.5 mg/kg, po administered once daily for 4 weeks; type: organism-based; details: in vivo, 672 h
[29] = Toxicity in female Beagle dog assessed as somnolence at 2.5 mg/kg, IG administered once daily for 4 weeks; type: organism-based, Canis lupus familiaris; details: in vivo, po, 672 h
[30] = molecular target: Muscarinic acetylcholine receptor M2 (Homo sapiens) (UniProt P08172); assay: Binding affinity to M2 receptor (unknown origin) at 10 uM by radioligand binding assay relative to control
Muscarinic acetylcholine receptor M2 (Homo sapiens), sequence (P08172 whole entry): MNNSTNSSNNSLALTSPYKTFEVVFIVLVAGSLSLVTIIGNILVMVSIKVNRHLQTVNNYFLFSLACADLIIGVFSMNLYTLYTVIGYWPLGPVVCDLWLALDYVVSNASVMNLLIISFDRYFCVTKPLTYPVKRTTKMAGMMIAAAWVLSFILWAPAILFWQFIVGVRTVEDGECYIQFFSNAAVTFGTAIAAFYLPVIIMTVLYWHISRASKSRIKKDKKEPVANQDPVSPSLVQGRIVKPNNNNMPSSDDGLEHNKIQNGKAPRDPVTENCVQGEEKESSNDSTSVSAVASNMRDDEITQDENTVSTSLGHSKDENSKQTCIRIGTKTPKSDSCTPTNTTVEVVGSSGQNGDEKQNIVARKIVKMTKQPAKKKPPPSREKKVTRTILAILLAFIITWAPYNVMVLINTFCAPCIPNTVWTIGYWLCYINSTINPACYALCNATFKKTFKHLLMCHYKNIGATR

[31] = Toxicity in female Beagle dog assessed as change in body weight at 0.75 to 2.5 mg/kg, IG administered once daily for 4 weeks and measured after 4 weeks; type: organism-based, Canis lupus familiaris; details: in vivo, po, 1344 h, dose 0.75-2.5 mg/kg, time 8 weeks
[32] = molecular target: 5-hydroxytryptamine receptor 2C (Rattus norvegicus, UniProt P08909); assay: Agonist activity at rat 5-HT2CR; type: functional
5-hydroxytryptamine receptor 2C (Rattus norvegicus, UniProt P08909), sequence (P08909 whole entry): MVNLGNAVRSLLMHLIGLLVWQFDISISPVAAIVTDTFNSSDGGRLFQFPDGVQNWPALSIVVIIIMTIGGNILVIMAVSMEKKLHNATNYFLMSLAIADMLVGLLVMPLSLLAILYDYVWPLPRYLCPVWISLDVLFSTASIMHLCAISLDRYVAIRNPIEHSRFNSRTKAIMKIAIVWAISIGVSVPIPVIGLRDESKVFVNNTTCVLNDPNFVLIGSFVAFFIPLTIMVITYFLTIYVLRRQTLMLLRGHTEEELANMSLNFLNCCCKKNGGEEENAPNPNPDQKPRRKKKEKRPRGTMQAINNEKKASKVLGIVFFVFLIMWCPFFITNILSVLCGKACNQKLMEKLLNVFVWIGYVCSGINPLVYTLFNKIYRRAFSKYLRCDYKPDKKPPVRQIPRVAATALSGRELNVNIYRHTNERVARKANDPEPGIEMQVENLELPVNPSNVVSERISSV

L-type calcium channel = L-type calcium channel (Homo sapiens, UniProt O60840+Q01668+Q13698+Q13936); assay: Binding affinity to L-type calcium channel (unknown origin) at 10 uM by radioligand binding assay relative to control; type: protein assay; details: read-out: Activity
[33] = Cardiotoxicity in conscious cynomolgus monkey assessed as change in mean arterial pressure at 3.125 to 12.5 mg/kg, IG measured within 25 hrs; type: toxicity, organism-based, Macaca fascicularis; details: in vivo, po, dose 3.125-12.5 mg/kg
[34] = molecular target: Cannabinoid receptor 2 (Homo sapiens) (UniProt P34972); assay: Binding affinity to CB2 (unknown origin) at 10 uM by radioligand binding assay relative to control
Cannabinoid receptor 2 (Homo sapiens), sequence (P34972 whole entry): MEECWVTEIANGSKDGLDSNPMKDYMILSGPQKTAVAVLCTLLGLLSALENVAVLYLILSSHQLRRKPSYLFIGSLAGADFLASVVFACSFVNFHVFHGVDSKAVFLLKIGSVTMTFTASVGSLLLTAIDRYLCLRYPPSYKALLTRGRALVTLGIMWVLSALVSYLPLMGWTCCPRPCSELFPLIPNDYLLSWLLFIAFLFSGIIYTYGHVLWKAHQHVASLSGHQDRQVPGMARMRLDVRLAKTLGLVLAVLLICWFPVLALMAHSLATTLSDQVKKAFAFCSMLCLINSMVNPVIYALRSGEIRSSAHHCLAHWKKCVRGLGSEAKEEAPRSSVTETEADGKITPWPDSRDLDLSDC

In the case of `c1cc2c(s1)[C@@H]1CNCCN1CC2`, the Activity [1] is reported as “Toxic”, the Activity [2] is reported as “inactive” and the Activity [3] is reported as “Toxic”. For the same molecule, the Activity [4] was “Non-toxic”, the IC50 (Cytochrome P450 2C8) was greater than 50 µM and the Activity [5] was “Non-toxic”. For the same molecule, the Activity [6] was 6.93%, the Activity [7] was “Non-toxic” and the EC50 [8] was 31.5 µM. For the same molecule, the Activity [9] was “Non-toxic”, the Activity [10] was “Non-toxic” and the Activity [11] was “Toxic”. The Activity [12] was “inactive”, the Activity [13] was “Toxic” and the Activity [14] was “Non-toxic”. For the same molecule, the Activity [15] was “Non-toxic”, the EC50 [16] was 74.4 nM and the Activity [17] was “Non-toxic”. The Activity [18] was -12.2%, the Activity [19] was “Non-toxic” and the CLint scaled at 1 µM [20] was 6.8 mL/min/kg. The Activity [21] was “Non-toxic”, the Activity [22] was “Non-toxic” and the Activity (Mus musculus) was 100%. The Activity [23] was “Non-toxic”, the Activity [24] was 48.5% and the Activity [25] was “Non-toxic”. The Activity [26] was “Toxic”, the Activity [27] was 72.7% and the Activity [28] was “Toxic”. For the same molecule, the Activity [29] was “Toxic”, the Activity [30] was 28.9% and the Activity [31] was “Non-toxic”. The EC50 [32] was 70.2 nM, the activity at 10 µM (L-type calcium channel) was -7.25% and the Activity [33] was “Non-toxic”. It also gave an Activity [34] of 2.7%.
